Test [1] addresses recombinant human PKC-θ enzyme (Homo sapiens, UniProt Q04759). In words: Protein Kinase C-θ assay (SPA, 33P-ATP phosphorylation of biotinylated substrate peptide). The following applies: 1 μM ATP, 40 min at room temperature, 1% DMSO, read-out: Inhibition of PKC-θ activity [measured as IC50 (μmol/l)]. The format is biochemical. The procedure: The compounds of formula 1 were tested for their activity on PKC-θ according to the following method. The assay was performed in 96 well microtiter plates (Perkin Elmer Wallac) at a final assay volume of 200 μl. The reaction mixture (50 μl) contained 10 μl of recombinant human PKC-θ enzyme together with 5 μl of the test compound and 3 μM biotinylated PKC-θ substrate peptide (Biotin-RKRQRSMRRRVHOH), 160 μM phosphatidylserine, 0.3 mg/ml BSA, 1 μM ATP and 2 μCi of ^33γ-ATP (Amersham) in 40 mM Tris-buffer pH 7.4. Incubation was performed for 40 min at room temperature. The reaction was stopped by adding 150 μl of a mixture containing 10 mM ATP and 1.33 mg/ml streptavidin coated yttrium silicate SPA beads (Amersham). Incorporated radioactivity (cpm) was measured for 2 min in a radioactivity counter (Wallac MicroBeta JET). […] IC50 values for inhibition of PKC-θ were calculated from the concentration-inhibition curves by nonlinear-regression.

The test system of the next test is CD4+ lymphocytes. In words: CD4+ proliferation assay (αCD3/αCD28 stimulation, 3H-methylthymidin incorporation). The format is cell-based. The conditions noted are these: Lymphocyte, αCD3/αCD28 stimulated CD4+ lymphocytes, 48 h incubation, read-out: Inhibition of CD4+ cell proliferation [measured as IC50 (μmol/l)]. Here is the method:
(§1) CD4+ lymphocytes were purified as described by Hatzelmann and Schudt (J Pharmacol Exp Ther 297: 267-279) and resuspended in assay medium (RPMI 1640/10% fetal calf serum (FCS) containing 2 mM Glutamine, 1% sodiumpyruvate, 1% non-essential amino acids and 1% penicillin/streptomycin) at a density of 1×10^6 cells/ml. 96 well plates were coated with αCD3 antibodies (0.3 μg/well; Ortho-clone OKT-3, Jansen-Cilag) for 2.5 h at 37° C. in 5% CO2 and then washed twice with PBS (200 μl/well). Prior to plating of the cells (200 μl, 2×10^5 cells) the compounds of formula 1 dissolved in 2% DMSO were added to the antibody-coated plates at the desired concentrations. Following a preincubation period of 30 min at 37° C. and 5% CO2 10 μl of αCD28 antibody (3 μg/ml, Beckman) were added and incubation continued for 48 h at 37° C. and 5% CO2. 18 h prior to cell harvest 10 μl of ^3H-methylthymidin (0.2 μCi, Amersham) were added. After 48 h total incubation time the cells were lysed using deionized water and radiolabeled DNA was immobilized on 96 well filter plates using a Tomtec device. The plates were dried at 60° C. for 1 h and overlayed with 40 μl Microscint-O (Packard) before counting in a Topcount radioactivity counter (Packard). Calculation of IC50 values was performed as described above.

For the next test, the system named is CD4+ T lymphocytes. In words: CD4+ IL-2 secretion assay (ELISA of supernatants). The following applies: αCD3/αCD28 stimulated CD4+ T lymphocytes, 48 h incubation, IL-2 in supernatants by ELISA; read-out: Inhibition of IL-2 secretion in CD4+ cell [measured as IC50 (μmol/l)]. Format: cell-based. Here is the method:
as §1
CD4+ T lymphocytes were stimulated and treated with compounds of formula 1 as described above for the CD4+ proliferation assay. Following a 48 h incubation period IL-2 levels in the supernatants (50 μl/well) were determined by ELISA (Beckman Coulter). Calculation of IC50 values was performed as described above.
Background: An ELISA detects its analyte on a solid surface through an enzyme-linked reagent.

Molecules are shown by their SMILES.

Sequence of recombinant human PKC-θ enzyme (Q04759 whole entry): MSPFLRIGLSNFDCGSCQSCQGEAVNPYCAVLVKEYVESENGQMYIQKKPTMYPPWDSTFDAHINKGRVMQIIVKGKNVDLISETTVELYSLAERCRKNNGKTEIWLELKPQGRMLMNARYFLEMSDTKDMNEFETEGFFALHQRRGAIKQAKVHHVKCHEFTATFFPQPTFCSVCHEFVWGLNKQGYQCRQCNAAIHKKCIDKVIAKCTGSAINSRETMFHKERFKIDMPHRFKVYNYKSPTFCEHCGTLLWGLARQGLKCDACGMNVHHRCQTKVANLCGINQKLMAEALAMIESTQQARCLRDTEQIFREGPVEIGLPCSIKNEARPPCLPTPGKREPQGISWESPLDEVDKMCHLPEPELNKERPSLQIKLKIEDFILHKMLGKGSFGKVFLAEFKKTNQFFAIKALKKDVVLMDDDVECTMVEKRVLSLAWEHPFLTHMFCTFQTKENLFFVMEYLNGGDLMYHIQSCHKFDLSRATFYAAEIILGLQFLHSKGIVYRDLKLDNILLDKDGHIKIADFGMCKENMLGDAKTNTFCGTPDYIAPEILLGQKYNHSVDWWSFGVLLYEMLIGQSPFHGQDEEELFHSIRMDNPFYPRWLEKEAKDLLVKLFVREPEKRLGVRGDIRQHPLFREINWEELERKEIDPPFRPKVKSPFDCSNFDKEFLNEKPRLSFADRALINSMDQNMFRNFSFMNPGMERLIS

Turning to `NC(=O)c1ccc(-c2cnc(NCc3ccccn3)nc2NC2CCN(Cc3ccccc3)CC2)cc1` [Example 15], the IC50 (in test [1]; with CD4+ lymphocytes; in the test on CD4+ T lymphocytes) was under 4 µmol/L each time.
With `CC(=O)c1ccc(-c2cnc(NCc3ccccn3)nc2NC2CCN(Cc3ccccc3)CC2)cc1` [Example 21], the IC50 in test [1] was under 4 µmol/L.
Consider `c1ccc(CN2CCC(Nc3nc(NCc4ccccn4)ncc3-c3ccco3)CC2)cc1` [Example 12, {5-(2-Furanyl)-2-[(2-pyridylmethyl)amino)pyrimidin-4-yl}[1-benzyl(4-piperidyl)]amine], for which the IC50 (in test [1]; with CD4+ T lymphocytes) was under 4 µmol/L each time.
For `c1ccc(CN2CCC(Nc3nc(NCc4ccccn4)ncc3-c3ccsc3)CC2)cc1` [Example 1, [1-Benzyl(4-piperidyl)]{2-[(2-pyridylmethyl)amino]-5-(3-thienyl)pyrimidin-4-yl}amine], the IC50 (in test [1]; with CD4+ lymphocytes; in the test with CD4+ T lymphocytes) was under 4 µmol/L each time.
Regarding `NC(=O)c1ccc(-c2cnc(NCc3ccncc3)nc2NC2CCN(Cc3ccccc3)CC2)cc1` [Example 6, {5-(Phenyl-4-carboxamido)-2-[(4-pyridylmethyl)amino)pyrimidin-4-yl}[1-benzyl(4-piperidyl)]-amine], in the test on CD4+ T lymphocytes, the IC50 is under 4 µmol/L.
For `CC(=O)c1cccc(-c2cnc(NCc3ccccn3)nc2NC2CCN(Cc3ccccc3)CC2)c1` [Example 22, 1-(3-[4-(1-Benzyl-piperidinylamino)-2-[(pyridin-2-ylmethyl)-amino]-pyrimidin-5-yl}phenyl)-ethanone], the IC50 in test [1] was under 4 µmol/L.
For `c1ccc(CN2CCC(Nc3nc(NCc4ccccn4)ncc3-c3ccoc3)CC2)cc1` [Example 13, {5-(3-Furanyl)-2-[(2-pyridylmethyl)amino)pyrimidin-4-yl}[1-benzyl(4-piperidyl)]amine], the IC50 (in test [1]; in the test on CD4+ T lymphocytes) was under 4 µmol/L in each case.
`c1ccc(CN2CCC(Nc3nc(NCc4ccncc4)ncc3-c3cccs3)CC2)cc1` [Example 8, {5-(2-Thienyl)-2-[(4-pyridylmethyl)amino)pyrimidin-4-yl}[1-benzyl(4-piperidyl)]amine]: the IC50 with CD4+ lymphocytes and in the test on CD4+ T lymphocytes was under 4 µmol/L each time.
As to `c1ccc(CN2CCC(Nc3nc(NCc4ccccn4)ncc3-c3cccs3)CC2)cc1` [Example 14, {5-(2-Thienyl)-2-[(2-pyridylmethyl)amino)pyrimidin-4-yl}[1-benzyl(4-piperidyl)]amine], the IC50 (in test [1]; in the test with CD4+ lymphocytes; in the test on CD4+ T lymphocytes) was under 4 µmol/L throughout.

The record behind these values is US20050222186A1, “Substituted diaminopyrimidines” (Altana Pharma AG, priority 2002, published 2005).
